In patent US10981932B2, “Macrocyclic indole derivatives” (Bayer Aktiengesellschaft, priority 2016, dated 2021):
Where a name gives a salt, the structure may show the parent alone. Read-outs that look alike come from different tables or passages of the source.

Key:
BCL-2 = target: T1, BCL-2 (Homo sapiens, UniProt P10415); test: Protein-protein interaction assay BCL-2/Bad BH3 peptide (BCL-2 assay), TR-FRET; assay type: binding; conditions: His-BCL-2 / Bad BH3-derived peptide, median
T1 construct: BCL-2 (amino acids 1-211, C-terminal fused to a hexahistidine (6×His) tag); purchased BPS Bioscience (San Diego, Calif., USA); host or cells: E. coli
T1 sequence (P10415 1-211): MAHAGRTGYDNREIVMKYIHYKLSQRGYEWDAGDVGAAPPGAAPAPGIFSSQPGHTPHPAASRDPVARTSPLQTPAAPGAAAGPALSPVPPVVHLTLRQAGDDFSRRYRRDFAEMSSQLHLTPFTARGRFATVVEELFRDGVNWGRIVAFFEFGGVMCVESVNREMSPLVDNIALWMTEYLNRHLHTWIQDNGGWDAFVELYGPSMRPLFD

SUDHL10 = test: Induction of caspase-3/7 activity (Caspase-Glo 3/7), SUDHL10; assay type: cell-based; conditions: caspase-3/7 induction, SUDHL10 cells, 3 h treatment; median
Summary of the method: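 Apoptosis induction measured as caspase-3/7 activity (Caspase-Glo 3/7) in DLBCL lines after 3 h treatment at 37 °C; EC50 derived relative to the reference compound's maximal induction, with C0 fixed at 1.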

OPM2 = test: Anti-proliferative effect (CellTiter-Glo, 72 h), OPM2; assay type: cell-based; conditions: OPM2 cells, median, read-out: IC50 antiproliferation assay OPM2 [M] (median)
Summary of the method: (§1)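 After seeding, one plate is read right away by CellTiter-Glo luminescence to fix time zero. The treated plates stay at 37 °C in humidified air for 72 h and are then measured with the same reagent and 10 min incubation.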

A2780 = test: Anti-proliferative effect (CellTiter-Glo, 72 h), A2780; assay type: cell-based; conditions: A2780 cells, median, read-out: IC50 antiproliferation assay A2780 [M] (median)
Summary of the method: as §1

MV-4-11 = test: Anti-proliferative effect (CellTiter-Glo, 72 h), MV-4-11; assay type: cell-based; conditions: MV-4-11 cells, median, read-out: IC50 antiproliferation assay MV-4-11 [M] (median)
Summary of the method: as §1

SK-MEL-2 = test: Anti-proliferative effect (CellTiter-Glo, 72 h), SK-MEL-2; assay type: cell-based; conditions: Homo sapiens, SK-MEL-2 cells, median, read-out: IC50 antiproliferation assay SK-MEL-2 [M] (median)
Protocol: Assessment of the Anti-Proliferative Effect of Compounds in Different Cell Lines
(§2) The impact of compounds on the proliferation of different cell lines was assessed using the CellTiter-Glo® Luminescent Cell Viability reagent from Promega (G7573). Of note, SUDHL10 and SUDHL5 (DLBCL), NCI-H929 (Multiple Myeloma), A2780 (ovarian carcinoma) as well as MV-4-11(AML) cells are sensitive to MCL-1 inhibition.
(§3) In parallel, cells were plated in a reference (day 0) plate for time zero determination.
(§4) Rim wells were excluded. The cells were incubated for 72 h hours in a humidified incubator at 37° C. The day 0 plate was measured by adding 30 μl/well of CTG solution (CellTiter-Glo® Luminescent Cell Viability reagent, Promega G7573) to time zero wells in the reference plate followed by a 10 minutes incubation and luminescence reading at 0.1 ms, using the PHERAstar FS microplate reader (BMG Labtech).
(§5) After 72 h incubation, the treated plates were measured in the same way as the day 0 plate mentioned above.

NCI-H1703 = test: Anti-proliferative effect (CellTiter-Glo, 72 h), NCI-H1703; assay type: cell-based; conditions: Homo sapiens, NCI-H1703 cells, median, read-out: IC50 antiproliferation assay NCI-H1703 [M] (median)
Protocol: as §2, §3, §4, §5

SMILES | IC50 (BCL-2) [µM] | EC50 (SUDHL10) [µM] | IC50 (OPM2; Homo sapiens, OPM-2, 72 h) [M] | IC50 (A2780; Homo sapiens, A2780, 72 h) [M] | IC50 (MV-4-11; Homo sapiens, MV4-11, 72 h) [M] | IC50 (SK-MEL-2) [M] | IC50 (NCI-H1703) [M] | IC50 (OPM2) [M] | IC50 (A2780) [M] | IC50 (MV-4-11) [M]
CCc1c2c(nn1C)CN(C)CCCn1c(C(=O)O)c(CCCOc3cccc4ccccc34)c3ccc(C)c-2c31 (single isomer, unassigned; enantiomer 1) [Example 145, 11-Ethyl-7,10,12-trimethyl-1-[3-(1-naphthyloxy)propyl]-4,5,6,7,8,10-hexahydropyrazolo[3′,4′:7,8][1,5]diazecino[9,10,1-hi]indole-2-carboxylic acid-N-ethylethanamine Salt (Enantiomer 1)] | > 20 | 2.57 | 3.22e-06 | 1.36e-05 | 4.3e-06 | 1.17e-05 | 6.53e-06 | – | – | –
CCc1c2c(nn1C)COCCCCn1c(C(=O)O)c(CCCOc3cccc4ccccc34)c3cccc-2c31 (single isomer, unassigned; enantiomer 1) [Example 148, 3-Ethyl-2-methyl-7-[3-(1-naphthyloxy)propyl]-2,10,11,12,13,15-hexahydropyrazolo[4′,3′:9,10][1,6]oxazacycloundecino[8,7,6-hi]indole-8-carboxylic acid-N-ethylethanamine Salt (Enantiomer 1)] | > 20 | 3.48 | 2.74e-06 | 2e-05 | 9.73e-07 | 2.67e-05 | 9.36e-06 | – | – | –
CCc1c2c(nn1C)COCCCCn1c(C(=O)O)c(CCCOc3cccc4ccccc34)c3ccc(C)c-2c31 (single isomer, unassigned; enantiomer 1) [Example 154, 3-Ethyl-2,4-dimethyl-7-[3-(1-naphthyloxy)propyl]-2,10,11,12,13,15-hexahydropyrazolo[4′,3′:9,10][1,6]oxazacycloundecino[8,7,6-hi]indole-8-carboxylic acid-N-ethylethanamine Salt (Enantiomer 1)] | > 20 | 1.7 | 2e-06 | 1.72e-05 | 1.36e-06 | 1.84e-05 | 6.84e-06 | – | – | –
Cn1nc(COc2ccc(N3CCN(S(C)(=O)=O)CC3)cc2)c2c1COCCCCn1c(C(=O)O)c(CCCOc3cccc4ccccc34)c3cccc-2c31 (single isomer, unassigned; enantiomer 2) [Example 1-10, 1-methyl-3-({4-[4-(methylsulfonyl)piperazin-1-yl]phenoxy}methyl)-7-[3-(naphthalen-1-yloxy)propyl]-1,10,11,12,13,15-hexahydropyrazolo[4′,3′:9,10][1,6]oxazacycloundecino[8,7,6-hi]indole-8-carboxylic acid (enantiomer 2)] | > 20 | 0.755 | – | – | – | 1.12e-05 | 5.52e-06 | 2.81e-06 | 1.19e-05 | 2.29e-06
Cn1nc(COc2ccc(N3CCN(S(=O)(=O)C4CC4)CC3)cc2)c2c1COCCCCn1c(C(=O)O)c(CCCOc3cccc4ccccc34)c3cccc-2c31 (single isomer, unassigned; enantiomer 2) [Example 1-13, 3-({4-[4-(cyclopropylsulfonyl)piperazin-1-yl]phenoxy}methyl)-1-methyl-7-[3-(naphthalen-1-yloxy)propyl]-1,10,11,12,13,15-hexahydropyrazolo[4′,3′:9,10][1,6]oxazacycloundecino[8,7,6-hi]indole-8-carboxylic Acid (Enantiomer 2)] | > 20 | 0.614 | – | – | – | 4.96e-06 | 2.67e-06 | 6.34e-07 | 7.74e-06 | 1.35e-06
